The values that follow come from patent US12649733B2, “3,6-diamino-pyridazin-3-yl derivatives, pharmaceutical compositions containing them and their uses as pro-apoptotic agents” (LES LABORATOIRES SERVIER, priority 2019, dated 2026).

In one assay the test system is H146 cells. The assay is described as follows: H146 cell viability, MTT assay. The class given is cell-based. As to conditions: Homo sapiens, NCI-H146, 48 h, 48 h exposure. Put shortly: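 Cells grown in RPMI 1640 with 10% heat-inactivated FBS at 37° C, 5% CO2, exposed 48 h to nine 3.16-fold serial compound dilutions in triplicate. MTT added for 4 h, SDS/HCl solubilisation overnight, absorbance at 540 nm; IC50 by four-parameter fit.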
For orientation: Tetrazolium assays rely on reduction of a dye to a coloured formazan, in cell work by metabolically active cells.

Another assay deals with MOLT-4 cells. The assay can be described thus: MOLT-4 cell viability, MTT assay. In kind it is cell-based. As to conditions: Homo sapiens, MOLT-4, 48 h, 48 h exposure. As to the method:
MTT colorimetric assay is based on the mitochondrial reduction of tetrazolium salt by living cells. The viable cell number is proportional to the production of formazan salts, which can be read spectrophotometrically at 540 nm.
MOLT-4 and H146 cells were purchased from ATCC and cultivated in RPMI 1640 supplemented with 10% heat inactivated fetal bovine serum, penicillin (100 IU/ml), streptomycin (100 μg/ml) and L-glutamine (2 mM). Cells were cultured at 37° C. in a humidified atmosphere containing 5% CO2. Cells were seeded in 96 microwell plates (150 μL per well) and exposed to the compounds for 48 h (3.16 fold serially diluted; 9 concentrations each, triplicates). At the end of incubation time, 15 μL of MTT solution (5 mg/ml) were added per well and the cells were incubated for another 4 h. Then, 100 μL of 10% Sodium Dodecyl Sulfate (SDS)/HCl 10 mM were added per well and the plate was incubated overnight, before measurement of optical density at 540 nm. IC50s were calculated using standard four-parametric curve fitting.

The next assay deals with BCLXL (Homo sapiens, UniProt Q07817, V10N/V9A). The assay is described as follows: Fluorescence polarisation assay (PUMA-based probe displacement). Also: 20 nM protein, 10 nM fluorescent probe. In kind it is binding. A general note: Fluorescence polarisation rises when a labelled molecule tumbles more slowly, as on binding a larger partner.
BCLXL, sequence (Q07817 with tags, fused parts or gaps V9A/V10N): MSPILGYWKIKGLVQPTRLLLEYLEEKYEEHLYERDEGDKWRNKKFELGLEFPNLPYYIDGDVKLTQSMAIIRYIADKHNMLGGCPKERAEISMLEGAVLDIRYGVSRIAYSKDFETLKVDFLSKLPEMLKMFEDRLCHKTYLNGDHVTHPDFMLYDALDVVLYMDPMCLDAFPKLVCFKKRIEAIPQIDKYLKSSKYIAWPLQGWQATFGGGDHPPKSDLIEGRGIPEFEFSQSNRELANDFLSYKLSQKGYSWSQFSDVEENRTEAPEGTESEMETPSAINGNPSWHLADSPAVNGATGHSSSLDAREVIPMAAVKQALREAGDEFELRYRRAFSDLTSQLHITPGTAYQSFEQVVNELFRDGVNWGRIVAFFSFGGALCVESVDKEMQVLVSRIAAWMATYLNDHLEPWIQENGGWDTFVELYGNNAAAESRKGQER

Each structure is given as a SMILES string.

The term IC50 denotes the concentration that inhibits the measured activity by half. Read a low IC50 as greater potency. One may read the Ki as a measure of affinity in units of concentration, obtained from inhibition or displacement. Take `COCCCC1(Cn2ncc(-c3sc(Nc4nnc(Nc5nc6ccccc6s5)c(C)c4C)nc3C(=O)O)c2C)CCCCCCC1` [Example 35, 2-({6-[(1,3-Benzothiazol-2-yl)amino]-4,5-dimethylpyridazin-3-yl}amino)-5-(1-{[1-(3-methoxypropyl)cyclooctyl]methyl}-5-methyl-1H-pyrazol-4-yl)-1,3-thiazole-4-carboxylic acid]: the IC50 with H146 cells was 2330 nM; with MOLT-4 cells it was 3700 nM. In addition, the Ki on BCLXL is 59 nM.

As to `COCCCC1(Cn2ncc(-c3sc(Nc4nnc(Nc5nc6ccccc6s5)c(C)c4C)nc3C(=O)O)c2C)CCCCC1` [Example 36, 2-({6-[(1,3-benzothiazol-2-yl)amino]-4,5-dimethylpyridazin-3-yl}amino)-5-(1-{[1-(3-methoxypropyl)cyclohexyl]methyl}-5-methyl-1H-pyrazol-4-yl)-1,3-thiazole-4-carboxylic acid], the IC50 is 1990 nM in the assay on H146 cells and 3470 nM with MOLT-4 cells. In addition, the Ki at BCLXL is 28 nM.

Regarding `CCN(c1cc(C)c(Nc2nc3ccccc3s2)nn1)c1nc(C(=O)O)cs1` [Example 37, 2-({6-[(1,3-Benzothiazol-2-yl)amino]-5-methylpyridazin-3-yl}(ethyl)amino)-1,3-thiazole-4-carboxylic acid], the values for the half-inhibitory concentration (IC50) in the assay with H146 cells and with MOLT-4 cells were 11000 nM and 7390 nM, respectively. Also, on BCLXL, the Ki is 15 nM.

On to `CN(c1ccc(Nc2nc3ccccc3s2)nn1)c1cccc(C(=O)O)n1` [Example 38, 6-({6-[(1,3-Benzothiazol-2-yl)amino]pyridazin-3-yl}(methyl)amino)pyridine-2-carboxylic acid], for which the IC50 in the assay with H146 cells and in the assay on MOLT-4 cells was over 15000 nM each time. The Ki on BCLXL came to 250000 nM.

For `COCCN(c1cc(C)c(Nc2nc3ccccc3s2)nn1)c1nc(C(=O)O)cs1` [Example 39, 2-({6-[(1,3-Benzothiazol-2-yl)amino]-5-methylpyridazin-3-yl}(2-methoxyethyl)amino)-1,3-thiazole-4-carboxylic acid], the IC50 with H146 cells and in the assay on MOLT-4 cells was over 15000 nM throughout. The Ki at BCLXL was found to be 54 nM.

As to `Cc1cc(N(C)c2nc(C(=O)O)c(-c3cnn(CC45CC6CC(CC(C6)C4)C5)c3C)s2)nnc1Nc1nc2ccccc2s1` [Example 40, 5-{1-[(Adamantan-1-yl)methyl]-5-methyl-1H-pyrazol-4-yl}-2-({6-[(1,3-benzothiazol-2-yl)amino]-5-methylpyridazin-3-yl}(methyl)amino)-1,3-thiazole-4-carboxylic acid], the IC50 in the assay with H146 cells came to 3800 nM; with MOLT-4 cells, 1490 nM. Besides, on BCLXL, the Ki is 20 nM.

For `Cc1cc(N(CCN2CCOCC2)c2nc(C(=O)O)cs2)nnc1Nc1nc2ccccc2s1` [Example 41, 2-({6-[(1,3-Benzothiazol-2-yl)amino]-5-methylpyridazin-3-yl}[2-(morpholin-4-yl)ethyl]amino)-1,3-thiazole-4-carboxylic acid], the IC50 in the assay with H146 cells is at least 9760 nM; in the assay with MOLT-4 cells, over 13000 nM. Also, the Ki at BCLXL turned out to be 37 nM.

Consider `COCCCC1(Cn2ncc(-c3sc(N(C)c4cc(C)c(Nc5nc6ccccc6s5)nn4)nc3C(=O)O)c2C)CCCCC1` [Example 42, 2-({6-[(1,3-Benzothiazol-2-yl)amino]-5-methylpyridazin-3-yl}(methyl)amino)-5-(1-{[1-(3-methoxypropyl)cyclohexyl]methyl}-5-methyl-1H-pyrazol-4-yl)-1,3-thiazole-4-carboxylic acid], for which the values for the IC50 in the assay on H146 cells and in the assay on MOLT-4 cells were 2040 nM and 1020 nM, respectively. Further, the Ki at BCLXL was 4.7 nM.

Take `Cc1cc(N(CCCN2CCOCC2)c2nc(C(=O)O)cs2)nnc1Nc1nc2ccccc2s1` [Example 44, 2-({6-[(1,3-Benzothiazol-2-yl)amino]-5-methylpyridazin-3-yl}[3-(morpholin-4-yl)propyl]amino)-1,3-thiazole-4-carboxylic acid]: the 50% inhibitory concentration (IC50) in the assay with H146 cells and in the assay with MOLT-4 cells was over 15000 nM throughout. Also, the Ki on BCLXL worked out at 69 nM.
